Read-outs that look alike come from different tables or passages of the source.
Legend:
NCI-H1417 SCLC xenograft [1] = assay: Efficacy in NCI-H1417 SCLC xenograft model (athymic nude mice); assay type: in vivo
LU2514 SCLC PDX = assay: Efficacy in LU2514 HuPrime SCLC patient derived xenograft; assay type: in vivo, mice; settings: both LU2514 studies
Procedure: Tumor growth inhibition analysis was performed on Day 28 post treatment, the last day of dosing.

LXFS 573 SCLC PDX [2] = assay: Efficacy in LXFS 573 SCLC PDX model; assay type: in vivo, mice
LU2527 lung NEC PDX = assay type: in vivo
GA0087 gastric NEC PDX = assay type: in vivo
MKL-1 hMCC xenograft = assay type: in vivo; settings: 5 mg/kg PO 5 on/2 off
MS-1 hMCC xenograft = assay type: in vivo; settings: 5 mg/kg PO 5 on/2 off
MKL-1 cells = assay: Modulation of gene expression by RNA-seq; assay type: cell-based, human
Procedure: Libraries were sequenced on an Illumina NextSeq® 500 System (Illumina, San Diego, Calif.) using 75 base paired-end RNA sequencing. Sequenced reads were mapped to the hg19 human genome build and differential expression was determined by analysis of variance across all replicates relative to the vehicle control.
Sequenced reads were mapped to the hg19 human genome build using the Spliced Transcripts Alignment to a Reference (STAR) software tool (OAlexander Dobin, 2009-2016) and transcript counts were normalized using the Empirical Analysis of Digital Gene Expression Data in R (edgeR) and Differential gene expression analysis based on the negative binomial distribution (DESeq2) software tools (OBioconductor, 2003-2017). Differential expression was determined by analysis of variance across all replicates relative to the vehicle control.

[3] = Hemodynamic and ECG parameters in anesthetized guinea pigs; assay type: in vivo, Dunkin Hartley guinea pigs
Source text: Animals were monitored throughout the experiment.

[4] = Pharmacokinetics after IV and oral administration; assay type: in vivo, CD-1 mice; settings: Mouse, female, single IV 5 mg base/kg
Source text: (§1) Human PK parameters and exposures were predicted using allometric scaling. Mice and dogs were the species used for nonclinical toxicology assessment. […] Excretion of non-radiolabeled Compound A was studied in rats.

[5] = Pharmacokinetics after IV and oral administration; assay type: in vivo, Sprague Dawley rats; settings: rats
Source text: as §1

[6] = Metabolism in cryopreserved primary hepatocytes; assay type: in vitro ADME; settings: mouse, rat, dog, monkey, human
[7] = Excretion in bile duct cannulated rats; assay type: in vivo; settings: IV
[8] = 4-week oral gavage pivotal toxicity study with 4-week recovery in dogs (with ECG and toxicokinetics); assay type: in vivo, Beagle dogs
Procedure: The QTc interval was calculated using the Fridericia method.

[9] = tested on: Salmonella typhimurium TA98 and TA 100 strains; assay: Bacterial reverse mutation assay; assay type: cell-based; settings: up to 500 μg/mL; with and without S9
[10] = Exploratory toxicity study in mice; assay type: in vivo, CD-1 mice
Source text: Additional animals were included for TK evaluation.

LXFS 573 SCLC PDX [11] = settings: for SS, number of study survivors: Day 133, N=8
hERG potassium channel = hERG potassium channel (Homo sapiens (Human), UniProt Q12809); settings: hERG current
Sequence of hERG potassium channel (Q12809 whole entry): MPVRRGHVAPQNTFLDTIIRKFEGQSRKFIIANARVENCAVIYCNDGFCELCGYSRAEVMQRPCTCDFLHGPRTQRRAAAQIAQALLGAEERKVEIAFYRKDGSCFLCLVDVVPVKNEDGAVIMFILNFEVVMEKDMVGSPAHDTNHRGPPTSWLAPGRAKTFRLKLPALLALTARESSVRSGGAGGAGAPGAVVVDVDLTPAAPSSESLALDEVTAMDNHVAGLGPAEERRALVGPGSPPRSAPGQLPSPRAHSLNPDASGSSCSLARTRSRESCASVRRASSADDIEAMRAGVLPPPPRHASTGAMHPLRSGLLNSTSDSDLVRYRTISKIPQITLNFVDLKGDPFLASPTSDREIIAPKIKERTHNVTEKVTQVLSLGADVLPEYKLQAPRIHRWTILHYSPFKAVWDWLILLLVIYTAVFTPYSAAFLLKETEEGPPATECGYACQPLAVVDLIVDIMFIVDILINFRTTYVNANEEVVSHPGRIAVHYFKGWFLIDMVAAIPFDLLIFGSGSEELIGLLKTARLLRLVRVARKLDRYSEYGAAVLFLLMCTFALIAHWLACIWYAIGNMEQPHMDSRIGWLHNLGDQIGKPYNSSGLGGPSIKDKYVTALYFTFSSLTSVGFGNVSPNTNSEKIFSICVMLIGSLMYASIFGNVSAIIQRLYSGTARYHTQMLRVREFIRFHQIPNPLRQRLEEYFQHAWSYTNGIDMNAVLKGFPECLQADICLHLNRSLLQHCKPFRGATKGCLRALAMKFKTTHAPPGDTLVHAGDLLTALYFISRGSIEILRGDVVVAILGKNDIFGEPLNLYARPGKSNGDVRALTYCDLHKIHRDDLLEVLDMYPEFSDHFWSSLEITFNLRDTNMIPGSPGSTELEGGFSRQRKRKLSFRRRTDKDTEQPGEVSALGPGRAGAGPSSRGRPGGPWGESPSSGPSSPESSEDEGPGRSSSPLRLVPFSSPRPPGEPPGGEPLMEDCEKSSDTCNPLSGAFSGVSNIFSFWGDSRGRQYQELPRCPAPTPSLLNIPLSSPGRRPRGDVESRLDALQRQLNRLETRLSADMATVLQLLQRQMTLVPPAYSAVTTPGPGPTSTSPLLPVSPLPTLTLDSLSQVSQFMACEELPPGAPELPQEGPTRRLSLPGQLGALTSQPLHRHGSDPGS

[12] = Exploratory toxicity study in dogs
NCI-H1417 SCLC xenograft [13] = settings: 24 mg/kg Etoposide SC QD × 3
[14] = Etoposide at 24 mg/kg/day SC days 1-3 + Vehicle

In the case of `COc1ccc(-c2c(-c3ccc(C#N)c(F)c3)nc(N3CCC(N)CC3)n(C)c2=O)cc1F` [Compound A, 4-[2-(4-amino-piperidin-1-yl)-5-(3-fluoro-4-methoxy-phenyl)-1-methyl-6-oxo-1,6-dihydro-pyrimidin-4-yl]-2-fluoro-benzonitrile], the “mean body weight gain by end of study” value (NCI-H1417 SCLC xenograft [1]; 2.5 mg base/kg PO QD×65) is reported as 1%, the “mean body weight gain by end of study” value (NCI-H1417 SCLC xenograft [1]; 5 mg base/kg PO QD×65) is reported as 7.5% and the tolerability (NCI-H1417 SCLC xenograft [1]; 2.5 or 5 mg base/kg PO QD×65) is reported as “well tolerated”. For the same compound, the “mean body weight losses” value (LU2514 SCLC PDX) was under 10%, the “Median Tumor Volumes Day 1” value (LXFS 573 SCLC PDX [2]; 5 mg base/kg PO QD × 28) was 108.4 mm^3 and the “TGI end of study (Day 28)” value (LXFS 573 SCLC PDX [2]; 5 mg base/kg oral) was 78%. For the same compound, the “Median Tumor Volumes Day 1” value (LXFS 573 SCLC PDX [2]; 7.5 mg base/kg PO QD × 28) was 113.2 mm^3, the “Median Tumor Volumes Day 1” value (LXFS 573 SCLC PDX [2]; 10 mg base/kg PO QD × 28) was 113.8 mm^3 and the “Median Tumor Volumes Day 0” value (LU2527 lung NEC PDX; 1.5 mg base/kg PO QD × 46) was 148.2 mm^3. For the same compound, the “Median Tumor Volumes Day 0” value (LU2527 lung NEC PDX; 5 mg base/kg PO QD × 46) was 151.8 mm^3, the “Median Tumor Volumes Day 0” value (GA0087 gastric NEC PDX; Group 2, 1.5 mg base/kg PO QD × 53) was 128.9 mm^3 and the “Median Tumor Volumes Day 0” value (GA0087 gastric NEC PDX; Group 3, dose printed 1.5 mg base/kg (text: 5 mg/kg) PO QD × 53) was 127.6 mm^3. The “Median Tumor Volumes Day −3” value (MKL-1 hMCC xenograft) was 65 mm^3, the “Median Tumor Volumes Day −3” value (MS-1 hMCC xenograft) was 49 mm^3 and the “downregulated genes changed in both hMCC lines at both concentrations (of 4303)” value (MKL-1 cells; MKL-1 and MS-1, 10 and 100 nM, 3 days) was 17 genes. The “ST18 and FREM2 gene expression change (upregulated, dose-dependent)” value (MKL-1 cells; both hMCC lines, 10 and 100 nM) was “at least 2 fold”, the “maximum suppression of HR vs vehicle” value ([3]; 20 mg base/kg IV, 9 minutes into 10-minute infusion) was 19% and the “effect on MAP or its components” value ([3]; IV 5-20 mg base/kg vs time-matched vehicle) was “No notable effect”. For the same compound, the “QTcB interval increase at end of monitoring period” value ([3]; after escalating IV doses) was 10%, the clearance ([4]; CD-1, plasma) was 39 mL/min/kg and the Vss [4] was 7.31 L/kg. For the same compound, the systemic clearance [5] was “greater than liver blood flow”, the “metabolic stability in hepatocytes” value [6] was “greater in rat and dog followed by human and monkeys while being least stable in mouse hepatocytes” and the “dose excreted intact in urine” value ([7]; 24 hours) was 8.5 % of dose. The “dose excreted intact in 24 hours (urine + bile)” value ([7]; bile duct cannulated rats) was 26.3 % of the dose, the animals euthanized moribund ([8]; 0.375 mg base/kg QW) was 1 male and the animals euthanized moribund ([8]; 0.75 mg base/kg QW) was 2 males and 1 female. For the same compound, the animals euthanized moribund ([8]; 1.5 mg base/kg QW) was 3 males and 4 females, the “recovery of findings after 4-week treatment-free period” value ([8]; dog, in vivo) was “complete recovery” and the animals euthanized moribund ([8]; weekly oral administration, study Days 13 to 23) was 11 animals. For the same compound, the mutagenicity [9] was “negative”, the “increase in platelets on Day 8 vs end of first dosing period” value ([10]; 10 mg/kg/day 5 days on/2 days off) was over 2 fold and the “greatest reduction in neutrophil counts vs controls and pre-study values” ([10]; 5 days on/2 days off schedule) was “approximately 90%”. For the same compound, the “circulating platelets at end of study” value ([10]; all dose levels) was “reduced”, the “tumor volume of survivor at study end” value (LXFS 573 SCLC PDX [11]; Compound A 1 mg/kg in combination with etoposide 24 mg/kg) was 1430 mm3 and the “survivors on Day 133” value (LXFS 573 SCLC PDX [11]; Compound A 1 mg/kg in combination with etoposide 24 mg/kg, n=8) was 1 animals. The “MTV of survivors on Day 133” value (LXFS 573 SCLC PDX [11]; Compound A 2.5 mg/kg in combination with etoposide 24 mg/kg) was 1121 mm3, the “survivors on Day 133” value (LXFS 573 SCLC PDX [11]; Compound A 2.5 mg/kg in combination with etoposide 24 mg/kg, n=8) was 3 animals and the “MTV of survivors on Day 133” value (LXFS 573 SCLC PDX [11]; Compound A 5 mg/kg in combination with etoposide 24 mg/kg) was 121 mm3. For the same compound, the “survivors on Day 133” value (LXFS 573 SCLC PDX [11]; Compound A 5 mg/kg in combination with etoposide 24 mg/kg, n=8) was 8 animals, the “Median TTE” value (LXFS 573 SCLC PDX [11]; Compound A at 5 mg/kg/day PO days 1-133) was 133 days and the “SS, number of study survivors” value (LXFS 573 SCLC PDX [11]; Compound A at 5 mg/kg/day) was 7. For the same compound, the “study survivors on Day 133” value (LXFS 573 SCLC PDX [11]; Compound A monotherapy 5 mg/kg, n=8) was “seven”, the Hill coefficient (hERG potassium channel) was 1.2 and the “Compound A-related effects” value ([12]; 0.25 mg/kg/dose QOD) was “generally no Compound A-related effects”. For the same compound, the “body weight loss of moribund female” value ([12]; 0.5 mg/kg/day 5 days on/2 days off, Day 12) was 10.8% and the mortality ([12]; 0.5 mg/kg/day 5 days on/2 days off, one female, Day 12) was “sacrificed moribund”.

For `COc1cc([C@@H]2c3cc4c(cc3[C@@H](O[C@@H]3O[C@@H]5CO[C@@H](C)O[C@H]5[C@H](O)[C@H]3O)[C@H]3COC(=O)[C@H]23)OCO4)cc(OC)c1O` [Etoposide, etoposide, reference compound], the “SS, number of study survivors” value (LXFS 573 SCLC PDX [11]; Etoposide at 24 mg/kg/day + Vehicle) was 0 (na), the “Median TTE” value (LXFS 573 SCLC PDX [11]; [14]) was 63 days and the “T-C” value (LXFS 573 SCLC PDX [11]; [14]) was 21 days. The “% TGD” value (LXFS 573 SCLC PDX [11]; etoposide monotherapy 24 mg/kg) was 50%, the TGD (LXFS 573 SCLC PDX [11]; etoposide monotherapy 24 mg/kg) was 21 days and the “Median TTE” value (LXFS 573 SCLC PDX [11]; etoposide monotherapy 24 mg/kg SC daily Days 1-3) was 63 days. For the same compound, the “% TGD” value (NCI-H1417 SCLC xenograft [13]) was 97%, the “Median TTE” value (NCI-H1417 SCLC xenograft [13]) was 50 days and the “T − C” value (NCI-H1417 SCLC xenograft [13]) was 24 days.

Reference: US10849898B2, “Treatment of relapsed and/or refractory solid tumors and non-Hodgkin's lymphomas” (CELGENE QUANTICEL RESEARCH, INC., priority 2016, dated 2020)
